From ChEMBL document CHEMBL1201862, “PubChem BioAssay data set” (2004) come the findings set out here.

Broadly, the AC50 is the concentration at which the activity in the assay is half-maximal. What is called EC50 is the concentration giving half of the maximal effect. By IC50 is commonly meant the point on the concentration scale where inhibition reaches its midpoint.

The source made the active and inactive calls.

A short description of assay [1]: blockers of HIV-1 envelope-mediated cell-cell fusion – cherry-pick, dose response (AID 652057). It is filed as functional, cell-based.
Assay [2] can be described thus: viability loss in CEM21 cells – cell-based, CellTiter-Glo luminescence, cherry-picked, cytotoxicity control for viral fusion inhibitor project, dose response (AID 652042).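 Also: potency for signal decrease meaning cytotoxicity.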 It is filed as functional.
A short description of assay [3]: off-target signal loss in HeLa-CEM21 co-culture – HeLa F-luc CTL cells, cherry-picked, counter-screen for HIV-1 Env fusion inhibitor project, dose response (AID 652040).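 Also: potency for signal decrease marking cytotoxic or nonspecific inhibition.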 The class given is functional, cell-based. On the technique in general: The purpose of a counterscreen is to sort out artefacts and off-target activity.
Assay [4] concerns the target SWI/SNF-related matrix-associated actin-dependent regulator of chromatin subfamily A member 2 (Homo sapiens, UniProt P51531). As to the kind of experiment: Luminescence-based cell-based high throughput dose response assay to identify activators of the function of SWI/SNF related, matrix associated, actin dependent regulator of chromatin, subfamily a, member 2 (SMARCA2, BRM). It is filed as functional.

Assay [5] has as its target Photoreceptor-specific nuclear receptor (Homo sapiens, UniProt Q9Y5X4). It is filed as functional, cell-based.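 Also: CHO-S cells with Gal4-NCOR and VP16-NR2E3 two-hybrid luciferase reporter.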
Assay [6] in a line: Counterscreen for activators of the function of SWI/SNF related, matrix associated, actin dependent regulator of chromatin, subfamily a, member 2 (SMARCA2, BRM): Luminescence-based cell-based high throughput dose response assay to identify non-selective compounds using the VP16 reporter assay. It is filed as functional.
Another assay has as its system Vero. Kind of assay: viability loss in Vero cells – cell-based, plate reader, cherry-pick samples, cytotoxicity control, dose response (AID 687020). The class given is functional. The conditions noted are these: Chlorocebus sabaeus.
The nature of assay [7]: Counterscreen for inhibitors of Trypanosoma brucei methionyl tRNA synthetase (MetRS): Luminescence-based cell-based high throughput dose response assay to identify compounds that are cytotoxic to Jurkat human T lymphocyte cells. The class given is functional.
Assay [8] addresses T1, Methionyl-tRNA synthetase, putative (Trypanosoma brucei brucei, UniProt Q38C91).
T1 sequence (Q38C91 whole entry): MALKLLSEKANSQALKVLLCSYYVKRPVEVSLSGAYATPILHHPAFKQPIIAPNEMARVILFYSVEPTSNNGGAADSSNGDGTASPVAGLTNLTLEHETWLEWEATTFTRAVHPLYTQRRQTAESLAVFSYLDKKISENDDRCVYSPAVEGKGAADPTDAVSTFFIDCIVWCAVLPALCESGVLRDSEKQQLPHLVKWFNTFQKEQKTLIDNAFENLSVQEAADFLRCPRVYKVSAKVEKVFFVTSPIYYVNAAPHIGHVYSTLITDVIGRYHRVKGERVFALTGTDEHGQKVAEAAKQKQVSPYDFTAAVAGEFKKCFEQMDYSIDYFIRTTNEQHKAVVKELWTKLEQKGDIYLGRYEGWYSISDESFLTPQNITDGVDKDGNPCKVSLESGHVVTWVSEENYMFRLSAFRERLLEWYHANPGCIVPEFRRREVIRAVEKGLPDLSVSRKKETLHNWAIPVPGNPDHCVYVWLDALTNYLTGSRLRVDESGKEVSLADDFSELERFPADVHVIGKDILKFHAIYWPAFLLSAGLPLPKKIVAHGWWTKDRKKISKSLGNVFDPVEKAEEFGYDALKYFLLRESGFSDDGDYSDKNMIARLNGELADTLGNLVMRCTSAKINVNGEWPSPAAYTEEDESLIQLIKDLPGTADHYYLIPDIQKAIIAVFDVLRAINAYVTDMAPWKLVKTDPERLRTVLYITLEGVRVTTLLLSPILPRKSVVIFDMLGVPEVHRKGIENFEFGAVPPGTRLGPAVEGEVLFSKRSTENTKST
The class given is functional, Trypanosoma brucei brucei strain 927/4 GUTat10.1.

Assay [9] has as its target T1, Methionyl-tRNA synthetase, putative. The class given is functional, Trypanosoma brucei brucei strain 927/4 GUTat10.1. This is another data set of the same source.
Assay [10] concerns Streptococcus sp. 'group A'. As to the kind of experiment: Streptococcus pyogenes SK(-)GAS viability under kanamycin – luminescence, BacTiterGlo, confirmation, counter-screen for streptokinase expression inhibitor project, dose response (AID 1900). The class given is functional, organism-based.
A short description of assay [11]: blockers of HIV-1 ZM109 envelope-driven cell-cell fusion – HeLa effector, CEM target cells, luciferase, cherry-pick, dose response (AID 652058).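 Also: luciferase signal from HIV-1 Env mediated cell-cell fusion of effector and target cells.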 It is filed as functional, cell-based.
Assay [12] in a line: HIV-1 AD8 envelope cell-cell fusion blockers – cherry-pick, dose response (AID 652062).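 Also: luciferase signal from cell-cell fusion driven by HIV-1 clade B AD8 Env; potency is for inhibitors of fusion seen as a drop in luminescence.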 It is filed as functional, cell-based.
A short description of assay [13]: fluconazole-exposed Candida albicans growth modulators – fluorescence, retest, confirmation (AID 2467). The class given is functional, cell-based.
Assay [14] is described as follows: NIH-3T3 fibroblast cytotoxicity, dose response, cytotoxicity control, cell-based, fluorescence, Alamar Blue, secondary assay (AID 2327).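 Also: NIH-3T3 mouse fibroblasts cultured with fluconazole at 8 µg/mL.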 It is filed as functional.
For a further assay, the system named is Streptococcus. Kind of assay: GAS UMAA2166 growth inhibition – luminescence, BacTiterGlo, counter-screen for streptokinase expression inhibitor project, dose response (AID 1915).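 Also: potency for reduction of bacterial viability or growth.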 It is filed as functional, organism-based.
The target in assay [15] is T2, Heat shock factor protein 1 (Mus musculus, UniProt P38532).
T2 sequence (P38532 whole entry): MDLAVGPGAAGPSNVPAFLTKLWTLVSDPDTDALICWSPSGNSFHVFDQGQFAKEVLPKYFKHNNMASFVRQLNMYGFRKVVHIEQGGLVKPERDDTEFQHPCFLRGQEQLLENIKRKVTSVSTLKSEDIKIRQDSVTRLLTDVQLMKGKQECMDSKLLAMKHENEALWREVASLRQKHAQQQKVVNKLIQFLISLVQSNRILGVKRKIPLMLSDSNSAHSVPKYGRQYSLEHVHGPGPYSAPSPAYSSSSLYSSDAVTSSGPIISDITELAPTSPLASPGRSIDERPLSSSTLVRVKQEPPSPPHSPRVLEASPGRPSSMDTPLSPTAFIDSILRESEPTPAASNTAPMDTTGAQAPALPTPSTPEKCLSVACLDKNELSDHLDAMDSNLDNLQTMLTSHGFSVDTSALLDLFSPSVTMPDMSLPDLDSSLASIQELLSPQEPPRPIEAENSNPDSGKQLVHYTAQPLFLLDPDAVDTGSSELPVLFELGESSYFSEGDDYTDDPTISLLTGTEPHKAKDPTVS
Kind of assay: decrease of HSF1-responsive luciferase luminescence – cell-based, NIH3T3, dose retest, confirmation (AID 2382).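 Also: NIH3T3 fibroblasts with HSF1-driven luciferase reporter stressed by proteasome inhibitor MG132; luminescence from HSF1-driven luciferase expression after 8 hours of MG132 stress.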 It is filed as functional.

For the next assay, the system named is INS1. As to the kind of experiment: INS-1E survival protection against cytokine death – cell-based, luminescence, retest, dose response (AID 449756).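 Also: cell death triggered by IL-1 beta plus TNF-alpha plus IFN-gamma mixture; protective hits raise ATP signal compared with cytokine alone wells.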 It is filed as functional. The conditions noted are these: Rattus norvegicus.
Assay [16] concerns the target T3, DNA repair and recombination protein RAD54-like (Homo sapiens, UniProt Q92698).
T3 sequence (Q92698 whole entry): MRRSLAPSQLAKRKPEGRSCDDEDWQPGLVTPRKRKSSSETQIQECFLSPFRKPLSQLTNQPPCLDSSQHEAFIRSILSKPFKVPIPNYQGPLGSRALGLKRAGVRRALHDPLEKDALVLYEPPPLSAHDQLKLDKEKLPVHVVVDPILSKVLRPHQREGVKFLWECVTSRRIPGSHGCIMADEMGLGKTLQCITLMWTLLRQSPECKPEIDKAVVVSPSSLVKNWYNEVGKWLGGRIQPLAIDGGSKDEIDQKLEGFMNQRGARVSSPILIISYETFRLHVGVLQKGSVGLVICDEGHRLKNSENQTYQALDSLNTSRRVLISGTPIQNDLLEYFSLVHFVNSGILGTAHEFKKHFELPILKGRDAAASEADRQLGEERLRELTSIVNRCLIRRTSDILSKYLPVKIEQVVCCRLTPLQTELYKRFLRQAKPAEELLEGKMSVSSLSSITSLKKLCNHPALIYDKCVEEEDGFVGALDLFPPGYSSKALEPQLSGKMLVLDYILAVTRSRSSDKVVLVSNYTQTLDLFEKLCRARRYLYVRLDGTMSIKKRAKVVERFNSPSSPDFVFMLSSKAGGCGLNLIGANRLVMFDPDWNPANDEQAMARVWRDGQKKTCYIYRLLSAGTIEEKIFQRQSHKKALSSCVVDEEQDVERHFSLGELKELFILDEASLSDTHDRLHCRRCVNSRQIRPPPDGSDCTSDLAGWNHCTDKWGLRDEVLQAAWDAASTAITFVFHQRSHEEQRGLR
As to the kind of experiment: RAD54 Holliday junction migration blockers – biochemical, fluorescence, cherry-picked samples, dose series, confirmation (AID 651657). The class given is functional.

Assay [17] concerns the target T4, Histone-lysine N-methyltransferase NSD2 (Homo sapiens, UniProt O96028).
T4 sequence (O96028 whole entry): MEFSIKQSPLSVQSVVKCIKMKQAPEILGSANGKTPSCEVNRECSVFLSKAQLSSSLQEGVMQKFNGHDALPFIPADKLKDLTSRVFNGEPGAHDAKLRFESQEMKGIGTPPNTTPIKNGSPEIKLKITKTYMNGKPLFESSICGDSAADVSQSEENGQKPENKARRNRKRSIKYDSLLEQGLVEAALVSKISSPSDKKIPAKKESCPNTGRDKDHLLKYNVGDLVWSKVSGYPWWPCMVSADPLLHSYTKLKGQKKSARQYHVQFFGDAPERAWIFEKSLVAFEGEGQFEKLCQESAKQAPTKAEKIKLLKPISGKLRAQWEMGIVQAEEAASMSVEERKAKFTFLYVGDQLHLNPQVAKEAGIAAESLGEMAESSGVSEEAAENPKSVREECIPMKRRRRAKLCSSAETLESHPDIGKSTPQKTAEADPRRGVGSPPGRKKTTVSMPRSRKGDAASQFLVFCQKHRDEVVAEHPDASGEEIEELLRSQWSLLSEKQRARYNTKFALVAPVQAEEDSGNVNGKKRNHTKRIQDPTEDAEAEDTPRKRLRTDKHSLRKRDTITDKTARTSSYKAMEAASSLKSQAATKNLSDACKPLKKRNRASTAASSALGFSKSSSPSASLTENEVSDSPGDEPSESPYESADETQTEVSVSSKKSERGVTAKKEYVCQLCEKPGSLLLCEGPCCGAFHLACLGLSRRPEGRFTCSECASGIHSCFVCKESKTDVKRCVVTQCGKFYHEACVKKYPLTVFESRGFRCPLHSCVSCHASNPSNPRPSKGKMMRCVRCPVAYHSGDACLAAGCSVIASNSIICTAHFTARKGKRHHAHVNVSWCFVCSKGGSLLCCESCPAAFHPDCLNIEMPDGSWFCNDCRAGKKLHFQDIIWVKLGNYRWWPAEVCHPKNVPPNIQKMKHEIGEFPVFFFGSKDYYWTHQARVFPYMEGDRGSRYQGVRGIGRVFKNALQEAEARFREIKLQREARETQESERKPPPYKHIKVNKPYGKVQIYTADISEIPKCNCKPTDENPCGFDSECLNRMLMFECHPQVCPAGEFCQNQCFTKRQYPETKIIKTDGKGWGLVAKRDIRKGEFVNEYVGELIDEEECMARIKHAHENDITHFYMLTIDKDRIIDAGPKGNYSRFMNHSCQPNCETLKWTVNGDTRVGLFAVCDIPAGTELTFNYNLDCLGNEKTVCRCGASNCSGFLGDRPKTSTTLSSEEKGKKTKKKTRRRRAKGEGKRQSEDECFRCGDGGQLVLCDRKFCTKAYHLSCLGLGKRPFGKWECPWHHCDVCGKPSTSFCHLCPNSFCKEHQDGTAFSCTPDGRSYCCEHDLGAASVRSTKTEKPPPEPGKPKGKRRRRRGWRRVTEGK
The class given is biochemical.

A further assay in a line: cells. The class given is functional.

Sequence of SWI/SNF-related matrix-associated actin-dependent regulator of chromatin subfamily A member 2 (P51531 whole entry): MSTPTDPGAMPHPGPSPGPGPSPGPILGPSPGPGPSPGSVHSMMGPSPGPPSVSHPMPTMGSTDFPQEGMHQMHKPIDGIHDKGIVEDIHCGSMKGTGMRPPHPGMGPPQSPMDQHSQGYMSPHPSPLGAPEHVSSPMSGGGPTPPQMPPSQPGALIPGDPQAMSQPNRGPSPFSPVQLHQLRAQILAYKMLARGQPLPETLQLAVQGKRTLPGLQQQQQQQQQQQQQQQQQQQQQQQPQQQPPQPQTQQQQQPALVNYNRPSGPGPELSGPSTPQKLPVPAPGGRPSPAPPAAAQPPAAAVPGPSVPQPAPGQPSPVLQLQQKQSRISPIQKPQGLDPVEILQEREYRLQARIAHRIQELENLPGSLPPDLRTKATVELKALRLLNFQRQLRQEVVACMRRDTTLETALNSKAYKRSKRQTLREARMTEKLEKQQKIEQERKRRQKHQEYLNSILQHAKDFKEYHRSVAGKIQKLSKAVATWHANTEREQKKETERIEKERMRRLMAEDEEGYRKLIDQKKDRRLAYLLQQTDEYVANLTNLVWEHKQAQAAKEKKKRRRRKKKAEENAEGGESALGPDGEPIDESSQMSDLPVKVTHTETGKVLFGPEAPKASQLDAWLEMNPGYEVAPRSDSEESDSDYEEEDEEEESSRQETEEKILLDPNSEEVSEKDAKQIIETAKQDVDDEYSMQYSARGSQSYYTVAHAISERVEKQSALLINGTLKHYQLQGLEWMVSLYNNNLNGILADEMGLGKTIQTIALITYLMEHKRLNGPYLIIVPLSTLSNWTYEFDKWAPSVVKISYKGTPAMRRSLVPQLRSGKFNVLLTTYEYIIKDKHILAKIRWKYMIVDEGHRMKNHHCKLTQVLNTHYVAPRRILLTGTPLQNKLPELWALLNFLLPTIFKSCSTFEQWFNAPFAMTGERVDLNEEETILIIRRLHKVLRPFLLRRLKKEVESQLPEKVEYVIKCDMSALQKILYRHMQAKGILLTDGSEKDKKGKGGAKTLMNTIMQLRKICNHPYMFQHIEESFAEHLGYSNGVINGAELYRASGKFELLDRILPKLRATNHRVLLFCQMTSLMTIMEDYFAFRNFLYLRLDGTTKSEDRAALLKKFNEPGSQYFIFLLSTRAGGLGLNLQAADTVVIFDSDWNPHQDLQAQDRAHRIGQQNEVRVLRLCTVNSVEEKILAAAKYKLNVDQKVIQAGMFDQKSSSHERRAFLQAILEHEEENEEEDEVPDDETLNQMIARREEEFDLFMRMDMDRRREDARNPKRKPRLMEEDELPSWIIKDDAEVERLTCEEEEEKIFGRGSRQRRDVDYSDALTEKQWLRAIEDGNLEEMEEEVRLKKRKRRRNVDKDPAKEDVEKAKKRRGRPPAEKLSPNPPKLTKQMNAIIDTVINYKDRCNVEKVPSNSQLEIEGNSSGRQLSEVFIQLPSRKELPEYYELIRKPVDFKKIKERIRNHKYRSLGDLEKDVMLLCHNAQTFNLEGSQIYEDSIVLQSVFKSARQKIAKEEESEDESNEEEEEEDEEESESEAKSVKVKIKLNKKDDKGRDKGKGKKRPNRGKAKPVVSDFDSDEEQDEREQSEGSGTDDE
Sequence of Photoreceptor-specific nuclear receptor (Q9Y5X4 whole entry, the tested form may be a part): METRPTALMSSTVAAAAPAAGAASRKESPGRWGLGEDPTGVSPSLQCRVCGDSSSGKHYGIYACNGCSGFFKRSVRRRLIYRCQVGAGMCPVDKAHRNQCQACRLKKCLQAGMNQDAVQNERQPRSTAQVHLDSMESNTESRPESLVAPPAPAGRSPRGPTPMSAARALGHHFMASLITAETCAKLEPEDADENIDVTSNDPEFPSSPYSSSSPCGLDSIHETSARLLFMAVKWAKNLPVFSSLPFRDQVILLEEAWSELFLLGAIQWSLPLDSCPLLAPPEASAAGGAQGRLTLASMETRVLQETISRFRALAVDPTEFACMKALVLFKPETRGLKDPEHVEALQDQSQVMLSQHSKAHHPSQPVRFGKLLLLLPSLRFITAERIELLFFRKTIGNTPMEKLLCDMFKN

For the molecule `Cc1cccc(C)c1N(CC(O)Cn1c2ccccc2c2ccccc21)S(C)(=O)=O` (stereo not given), the AC50 in assay [1] is 17.1 µM (active); in assay [2] it was 60.4 µM (active); in assay [3], > 70 µM (inactive).
With `COc1ccc2c(CC(=O)Nc3ncc(C)s3)coc2c1`, the EC50 in assay [4] and in assay [6] was > 91.2 µM (inactive) in each case. The concentration for half-maximal inhibition (IC50) in [5] is 1.11 µM (active).
Turning to `NC(=O)c1cc(Cl)cn(-c2ccccc2)c1=O`, the AC50 with Vero is 33.7 µM (active).
For the molecule `O=C(COC(=O)CCCOc1ccc(Cl)cc1Cl)Nc1cccc(Cl)c1`, the IC50 in assay [7] was 83.3 µM (inactive); in assay [8], 16.5 µM (inactive); in assay [9], 9.07 µM (active).
Taken in the same sequence, the figures for `O=C(Nc1ccccc1)Nc1nnc(COc2ccccc2F)s1` were 71 µM (inactive), 35.7 µM (inactive) and 42.9 µM (inactive).
As to `COc1ccc(C(C(=O)NC2CCCC2)N2CCc3ccccc32)cc1` (stereo not given), the half-maximal activity concentration (AC50) in the assay with Vero was 29.5 µM (active).
On to `CC1CCCCN1S(=O)(=O)c1ccc(C(=O)Nc2nnc(-c3cccs3)o2)cc1` (stereo not given), for which the EC50 in assay [10] was 2.05 µM (active); in assay [13], 1.11 µM (active); in assay [14], > 150 µM (inactive); with Streptococcus, 4.49 µM (active). Besides, the AC50 in [11] is 14.6 µM (active); in assay [1] it was 32.8 µM (active); in assay [12], 16.6 µM (active); in assay [2], 35.7 µM (active).
Regarding `O=C(Oc1c(CN2CCOCC2)cc(Cl)c2cccnc12)c1ccccc1Br`, the EC50 in assay [4] is > 91.1 µM (inactive); in [15], 31.3 µM (active); in assay [13], 3.49 µM (active); in assay [14], 135 µM (active); in [6], > 91.1 µM (inactive). The AC50 with INS1 is 6.56 µM (active).
Turning to `Nc1ccc(C2(c3ccc(N)cc3)CN3CCC2CC3)cc1`, the concentration at half-maximal activity (AC50) in [16] is 25.8 µM (active); in assay [17], 4.41 µM (active).
With `N/N=C(/Cc1nc2ccccc2[nH]1)c1ccc([N+](=O)[O-])cc1`, the IC50 was 83.3 µM (inactive) in [7], 19 µM (active) in “cells”, 3.17 µM (active) in [8] and 6.69 µM (active) in assay [9].
Consider `O=C(O)c1cc(=O)c2c(OCC(O)COc3cccc4oc(C(=O)O)cc(=O)c34)cccc2o1` [CROMOLYN SODIUM], for which the half-maximal activity concentration (AC50) in the assay with Vero is 34.3 µM (active).
